Measured values published in publication PMC8972196, “A Set of Experimentally Validated Decoys for the Human CC Chemokine Receptor 7 (CCR7) Obtained by Virtual Screening” (Frontiers in Pharmacology, 2022).
Read-outs that look alike come from different tables or passages of the source. Each block holds one compound with its values, some of them ahead of it.

Tests used:
[1] = molecular target: T1, human CXCR2 (Homo sapiens, UniProt P25025); experiment: CXCL8-induced calcium mobilization assay, U87.CD4 cells expressing CXCR2; format: cell-based; conditions: result in words
T1 construct: expressed in transfected cells
T1 sequence (P25025 1-360): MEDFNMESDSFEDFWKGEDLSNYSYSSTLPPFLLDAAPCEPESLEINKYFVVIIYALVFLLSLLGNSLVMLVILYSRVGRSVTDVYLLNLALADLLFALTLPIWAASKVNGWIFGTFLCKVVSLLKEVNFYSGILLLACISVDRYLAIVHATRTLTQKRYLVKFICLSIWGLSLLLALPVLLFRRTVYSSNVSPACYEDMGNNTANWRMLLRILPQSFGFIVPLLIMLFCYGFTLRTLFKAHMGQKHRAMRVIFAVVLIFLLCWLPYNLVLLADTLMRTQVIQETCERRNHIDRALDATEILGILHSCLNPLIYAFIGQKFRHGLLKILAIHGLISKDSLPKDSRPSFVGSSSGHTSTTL
Description: (§1) U87.CD4 cells that stably express either human CCR7, CXCR2, CCR5 or CXCR4 were seeded (20,000 cells/well) in gelatin-coated black-walled polystyrene 96-well plates with clear bottom and incubated overnight at 37°C and 5% CO2. […] Culture medium was removed, and cells were incubated for 45 min at room temperature in the dark. […] Exactly the same protocol was used to record calcium responses in Chinese hamster ovary (CHO)-K1 cells, upon stimulation with adenosine triphosphate (ATP, purchased from Sigma).

[2] = molecular target: T2, human CXCR4 (Homo sapiens, UniProt P61073); experiment: CXCL12-induced calcium mobilization assay, U87.CD4 cells expressing CXCR4; format: cell-based; conditions: result in words
T2 construct: expressed in transfected cells
T2 sequence (P61073 whole entry): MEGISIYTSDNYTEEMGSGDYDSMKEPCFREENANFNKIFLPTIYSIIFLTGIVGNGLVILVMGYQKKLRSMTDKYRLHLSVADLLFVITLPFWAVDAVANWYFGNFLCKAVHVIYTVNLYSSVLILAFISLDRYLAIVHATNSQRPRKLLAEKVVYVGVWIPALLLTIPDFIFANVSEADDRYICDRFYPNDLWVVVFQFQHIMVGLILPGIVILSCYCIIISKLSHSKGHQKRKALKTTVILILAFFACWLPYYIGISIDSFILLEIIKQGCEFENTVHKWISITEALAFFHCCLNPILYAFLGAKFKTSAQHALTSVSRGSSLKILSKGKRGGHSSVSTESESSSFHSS
Description: U87.CD4 cells that stably express either human CCR7, CXCR2, CCR5 or CXCR4 were seeded (20,000 cells/well) in gelatin-coated black-walled polystyrene 96-well plates with clear bottom and incubated overnight at 37°C and 5% CO2. The next day, a fluorescent Ca^2+-sensitive dye solution (Fluo-2 AM) was prepared as described before ([Claes et al., 2018]). Culture medium was removed, and cells were incubated for 45 min at room temperature in the dark. Meanwhile, 96-well polypropylene plates containing 5-fold concentrated compound dilutions and 5-fold concentrated solution of chemokine ligands (CCL19, CXCL8, LD78-β, CXCL12, respectively; all purchased from PeproTech) were prepared for use with the FLIPR Tetra device (Molecular Devices) as described before ([Claes et al., 2018]). The antagonistic properties of the compounds were calculated based on their capacity to inhibit the Ca^2+ release induced by a fixed concentration of chemokine (i.e. 50 ng/mL final concentration for CCL19, CXCL8 and CXCL12 and 100 ng/ml for LD78-β), as described ([Claes et al., 2018]). Exactly the same protocol was used to record calcium responses in Chinese hamster ovary (CHO)-K1 cells, upon stimulation with adenosine triphosphate (ATP, purchased from Sigma).

[3] = molecular target: T3, human CCR7 (Homo sapiens, UniProt P32248); experiment: CCL19-induced calcium mobilization assay, U87.CD4 cells expressing CCR7; format: cell-based; conditions: for CCR7 antagonism in calcium mobilization assay: CCL19-induced, result in words
T3 construct: expressed in transfected cells
T3 sequence (P32248 25-378): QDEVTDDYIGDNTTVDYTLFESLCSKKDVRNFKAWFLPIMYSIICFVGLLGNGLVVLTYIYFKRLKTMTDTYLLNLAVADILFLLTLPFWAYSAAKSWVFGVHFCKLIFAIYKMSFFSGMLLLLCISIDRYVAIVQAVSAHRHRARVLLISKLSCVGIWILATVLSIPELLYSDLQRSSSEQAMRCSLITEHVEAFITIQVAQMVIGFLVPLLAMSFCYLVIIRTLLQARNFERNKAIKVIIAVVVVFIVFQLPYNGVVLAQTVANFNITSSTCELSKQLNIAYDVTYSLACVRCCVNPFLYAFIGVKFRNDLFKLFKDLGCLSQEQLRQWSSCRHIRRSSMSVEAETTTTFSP
How it was run: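 U87.CD4 cells stably expressing human CCR7, CXCR2 or CCR5 were seeded at 20,000 cells/well and incubated overnight at 37°C and 5% CO2. Cells were then incubated for 45 min at room temperature in the dark before calcium responses were recorded. CCR7 responses were induced with CCL19 and CXCR2 responses with CXCL8.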

[4] = system: CCR7; set-up: method as in Jaeger et al., 2019; conditions: result in words; ref Jaeger et al., 2019; cited from earlier work
[5] = molecular target: T4, human CCR5 (Homo sapiens, UniProt P51681); experiment: cell-based; conditions: result in words
T4 construct: expressed in transfected cells
T4 sequence (P51681 whole entry): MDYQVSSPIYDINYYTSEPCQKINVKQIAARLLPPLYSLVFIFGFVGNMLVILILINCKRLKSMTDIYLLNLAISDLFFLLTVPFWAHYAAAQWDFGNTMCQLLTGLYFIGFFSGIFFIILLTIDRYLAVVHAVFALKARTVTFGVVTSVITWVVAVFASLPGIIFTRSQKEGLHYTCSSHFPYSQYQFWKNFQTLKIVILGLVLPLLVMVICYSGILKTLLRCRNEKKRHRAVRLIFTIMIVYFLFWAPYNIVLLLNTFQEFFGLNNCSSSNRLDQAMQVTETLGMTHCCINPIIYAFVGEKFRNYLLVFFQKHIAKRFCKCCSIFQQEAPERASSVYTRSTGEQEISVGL
Description: as §1

[6] = system: human or murine CCR7; set-up: method as in Hull-Ryde et al., 2018; conditions: ref Hull-Ryde et al., 2018, cited from earlier work; for IC50: read-out: IC50, β-arrestin recruitment
[7] = molecular target: T3, human CCR7; experiment: CCR7 competition binding assay with CCL19^AF647 (flow cytometry, whole cells)
Description: In brief, U87.CD4.CCR7 cells were pre-incubated with compound (at different concentrations) in 150 μL assay buffer [Hank’s balanced salt solution (HBSS), 20 mM HEPES and 0.5% Fetal Calf Serum] for 15 min at room temperature (RT) in the dark. Afterwards, 50 μL of CCL19^AF647 was added (25 ng/mL final concentration) and samples were incubated for another 30 min at RT, protected from light. Then, cells were washed twice with assay buffer and fixed in 1% paraformaldehyde in Dulbecco’s phosphate-buffered saline (DPBS).
Samples were immediately analyzed by flow cytometry (FACS Canto II, BD). Data were analysed using Flowjo. The percentage inhibition of CCL19^AF647 binding was calculated according to formula {1—[(MFIX–MFINC)/(MFIPC–MFINC)]} x 100, where MFIX is the mean fluorescence intensity (MFI) of the compound-treated sample, MFINC the MFI of the negative control (i.e., autofluorescence of untreated and unlabeled cells) and MFIPC the MFI of the positive control (i.e., cells exposed to CCL19^AF647 only). […] For each experiment the stain index (SI) was calculated as the ratio of the separation between MFIPC and MFINC, divided by two times the standard deviation of MFINC.

[8] = classification of tested compounds as decoy or active
[9] = CCL19-induced calcium signaling, read-out: IC50 [μM] block CCL19 induced calcium signaling
[10] = CCL19 induced calcium signaling, read-out: IC50 [μM] block CCL19 induced calcium signaling
[11] = classification as decoy or active on CCR7

inhibition of CXCR2 mediated calcium mobilization [1]: inhibited | effect on CXCR4 mediated calcium response [2]: no (or only very limited) effect
Compound: Cc1ccc([C@@H](NC2=NS(=O)(=O)N=C2Nc2ccc(C)c(C(=O)N(C)C)c2O)C(C)(C)C)o1 [Cmp2105, reference compound]

Compound: Maraviroc [reference compound]
CCR7 antagonism in calcium mobilization assay [3]: absence of activity | Decoy – 0 Active – 1 [3, 8]: 0 | thermal stabilization of CCR7 [4]: completely lacked the ability to thermally stabilize CCR7

Compound: CC(C)(C)c1ccc(S(=O)(=O)Nc2ccc(Cl)cc2C(=O)c2cc[n+]([O-])cc2)cc1 [Vercirnon]
thermal stabilization of CCR7 [4]: completely lacked the ability to thermally stabilize CCR7

Compound: CC[C@@H](Nc1c(Nc2cccc(C(=O)N(C)C)c2O)c(=O)c1=O)c1ccc(C)o1 [Navarixin]
effect on CXCR4 mediated calcium response [2]: no (or only very limited) effect | effect on CCR5 mediated calcium response [5]: no (or only very limited) effect

Compound: CCOc1ccc(NC(=O)C2CCN(C3=NS(=O)(=O)C(c4ccc(OC)cc4)=C3C)CC2)cc1 [CS-1]
thermal stabilization of CCR7 [4]: hits in the thermofluor stability assay, albeit less potent than cmp2105 and navarixin

Compound: CC(C)CCC[C@@H](C)[C@H]1CC[C@H]2[C@@H]3CC[C@H]4C[C@@H](CCC=C(c5cc(Cl)c(O)c(C(=O)O)c5)c5cc(Cl)c(O)c(C(=O)O)c5)CC[C@]4(C)[C@H]3CC[C@]12C [cosalane]
IC50 ([6]; CCL19 used as the natural CCR7 ligand): 200 nM | IC50 ([6]; CCL21 used as the agonist): 2700 nM | activity against human versus murine CCR7 ([6]; result in words): nearly identical activity against the human and murine CCR7 orthologues

Compound: COCCNc1c(Nc2cccc(C#N)c2)c(=O)c1=O [CS-2, 3-((2-((2-Methoxyethyl)amino)-3,4-dioxocyclobut-1-en-1-yl)amino)benzonitrile, reference compound]
IC50 [3]: > 50 µM | CCR7 antagonism in calcium mobilization assay [3]: inactive | Decoy – 0 Active – 1 [3, 8]: 0 | IC50 ([7]; inhibition of CCL19^AF647 binding, Mean ± SD of four independent experiments): > 50 µM | inhibition of CCL19^AF647 binding / CCR7 affinity ([7]; result in words): did not show any CCR7 affinity | thermal stabilization of CCR7 [4]: hits in the thermofluor stability assay, albeit less potent than cmp2105 and navarixin

Compound: Cc1cccnc1C1(CNc2cc(N3CCC[C@H](CO)C3)ncn2)CC1 [C080, Cc1cccnc1C1(CNc2cc(N3CCC[C@H](CO)C3)ncn2)CC1]
IC50 [3, 9]: > 50 µM | Decoy – 0 Active – 1 [3, 8]: 0

IC50 [3, 10]: > 50 µM | Decoy – 0 Active – 1 [3, 11]: 0
Compound: O=C(CCC1(C(=O)O)CCC(=O)NC1)NCc1ccccc1 (stereo not shown) [C216, O=C(CCC1(C(=O)[O-])CCC(=O)NC1)NCc1ccccc1]

IC50 [3, 9]: > 50 µM | Decoy – 0 Active – 1 [3, 8]: 0
Compound: CN1CC[C@H](NC(=O)CN[C@@H](c2ccccc2)C(F)(F)F)C1=O [C107, CN1CC[C@H](NC(=O)CN[C@@H](c2ccccc2)C(F)(F)F)C1=O]

IC50 [3, 10]: > 50 µM | Decoy – 0 Active – 1 [3, 11]: 0
Compound: COc1ccccc1NC(=O)CN(c1ccccc1)S(=O)(=O)c1ccc(OC)c(OC)c1 [C235, COc1ccccc1NC(=O)CN(c2ccccc2)S(=O)(=O)c3ccc(c(c3)OC)OC]

IC50 [3, 9]: > 50 µM | Decoy – 0 Active – 1 [3, 8]: 0
Compound: CC(C)Cc1cc(C(=O)N(Cc2ccccc2Cl)C(C)C)nc(=O)[nH]1 [C142, CC(C)Cc1cc(C(=O)N(Cc2ccccc2Cl)C(C)C)nc(=O)[nH]1]
